Results as given in patent US11491173B2, “Pharmaceutical composition and application thereof” (priority 2018, dated 2022).
Values joined by “and” are separate entries in the source; they are usually repeats but may differ in a detail not shown here. Identical values can stand only once.

Legend:
[1] = system: H9c2 cardiomyocyte damage induced by hypoxia; experiment: Hypoxia-induced H9c2 cardiomyocyte damage, nucleus number (Hoechst 33342, high-content imaging); type: cell-based; conditions: for nucleus number (Table 7): individual replicates N1-N3, 0.4 mg/mL DMSO stock diluted with medium
Experimental: (§1) 2. Experimental methods: QSYQ-1 and QSYQ-2, and each active ingredient group were ultrasonically dissolved and prepared into a 0.4 mg/mL of stock solution with DMSO. When in vitro activity evaluation was performed, the above groups were diluted with the same amount of experimental medium respectively.
(§2) The cells were collected at the logarithmic growth phase and added to a 96-well culture plate with a black transparent bottom at a concentration of 5000 cells per well and a volume of 100 μL per well. The cells were incubated in an incubator with 5% CO2 at 37° C. for 24 hours. Subsequently, the tested groups were added to the experimental groups respectively, incubated for 24 hours, and then placed in a hypoxic chamber passing a mixed gas composed of 95% nitrogen and 5% CO2 at a flow rate of 15 L/min for 10 mins, and incubated for another 8 hours after inducing hypoxia damage at 37° C. The model group was only incubated for 8 hours under hypoxia, and the blank control group was incubated normally.
(§3) The labeling operation of cell fluorescent probe was as follows: the mother liquor of fluorescent probe Hoechst 33342 was diluted 1000-fold into a DMEM basic medium; then the mother liquor of MitoTracker Deep Red FM was diluted 10000-fold into a culture medium containing Hoechst 33342 to serve as a “cocktail” stain. The medium in the culture plate was discarded and replaced with the “cocktail” stain, 50 μL per well, and incubated in an incubator away from light for 30 mins. The plate was taken out away from light, and washed with DMEM (high glucose) for 3 times and 5 minutes each time. Live cell imaging was performed subsequently.
(§4) The operation of live cell imaging with HCS was as follows: an excitation light of 360-400 and an emission light of 410-480 were selected for the imaging of Hoechst 33342-labeled nuclei; an excitation light of 620-640 and an emission light of 650-760 were selected for the imaging of MitoTracker Deep Red FM-labeled mitochondria. Harmony 3.0 software was applied to analyze the HCS imaging and read the fluorescence intensities of the nucleus/cytoplasm. The HCS screening system combined the automatic fluorescence microscopy imaging functions, and can perform a high-throughput multi-index analysis. Columbus high-efficiency image and data management and analysis system were applied to perform a secondary analysis and management of the image and data, and draw the dosage-dependent curve relationship.

[2] = system: H9c2 cardiomyocyte damage induced by hypoxia; experiment: Hypoxia-induced H9c2 cardiomyocyte damage, mitochondrial function (MitoTracker Deep Red FM, high-content imaging); type: cell-based; conditions: for mitochondrial function (Table 9): individual replicates N1-N3
Experimental: as §1, §2, §3, §4

[3] = mean of N1-N3, 24 h pre-incubation, then hypoxia 8 h
[4] = 24 h pre-incubation, then hypoxia 8 h

Row | Molecule | nucleus number, Mean (Table 7) [1, 3] | mitochondrial function, Mean (Table 9) [2, 3] | nucleus number (Table 7) [1, 4] | mitochondrial function (Table 9) [2, 4] | also measured
1 | COc1ccc(-c2coc3cc(O)ccc3c2=O)cc1O [Calycosin, calycosin] | 386.0 | 905.6 | – | – | –
2 | COc1ccc(-c2coc3cc(O[C@@H]4O[C@H](CO)[C@@H](O)[C@H](O)[C@H]4O)ccc3c2=O)cc1O [Calycosin-7-glucoside, calycosin-7-glucoside] | 333.7 | 902.3 | 312 and 366 and 323 | 967.77 and 861.05 and 877.99 | –
3 | C[C@H]1COC2=C1C(=O)C(=O)c1c2ccc2c1CCCC2(C)C [Cryptotanshinone, cryptotanshinone] | 349.0 | 853.8 | – | – | –
4 | O=C(O)[C@H](O)Cc1ccc(O)c(O)c1 [Danshensu] | 346.3 | 879.0 | 326 and 371 and 342 | 909.24 and 845.81 and 882.04 | –
5 | Cc1cccc2c3c(ccc12)C1=C(C(=O)C3=O)[C@@H](C)CO1 [Dihydrotanshinone I, dihydrotanshinone I] | 339.7 | 887.3 | 303 and 373 and 313 | 930.1 and 918.77 and 813.04 | –
6 | COc1ccc(-c2coc3cc(O)ccc3c2=O)cc1 [Formononetin, formononetin] | 376.3 | 863.7 | – | – | –
7 | CC(C)=CCC[C@](C)(O[C@@H]1O[C@H](CO[C@@H]2O[C@H](CO)[C@@H](O)[C@H](O)[C@H]2O)[C@@H](O)[C@H](O)[C@H]1O)[C@H]1CC[C@]2(C)[C@@H]1[C@H](O)C[C@@H]1[C@@]3(C)CC[C@H](O[C@@H]4O[C@H](CO)[C@@H](O)[C@H](O)[C@H]4O[C@@H]4O[C@H](CO)[C@@H](O)[C@H](O)[C@H]4O)C(C)(C)[C@@H]3CC[C@]12C [Ginsenoside Rb1, ginsenoside Rb1] | 404.0 | 814.6 | 406 and 420 and 386 | 778.78 and 843.1 and 822.04 | –
8 | CC(C)=CCC[C@](C)(O[C@@H]1O[C@H](CO)[C@@H](O)[C@H](O)[C@H]1O)[C@H]1CC[C@]2(C)[C@@H]1[C@H](O)C[C@@H]1[C@@]3(C)CC[C@H](O[C@@H]4O[C@H](CO)[C@@H](O)[C@H](O)[C@H]4O[C@@H]4O[C@H](CO)[C@@H](O)[C@H](O)[C@H]4O)C(C)(C)[C@@H]3CC[C@]12C [Ginsenoside Rd, ginsenoside Rd] | – | – | – | – | nucleus number, Mean (Table 7) ([1]; 8 h): 408.0; mitochondrial function, Mean (Table 9) ([2]; 8 h): 820.9
9 | CC(C)=CCC[C@](C)(O[C@@H]1O[C@H](CO)[C@@H](O)[C@H](O)[C@H]1O)[C@H]1CC[C@]2(C)[C@@H]1[C@H](O)C[C@@H]1[C@@]3(C)CC[C@H](O)C(C)(C)[C@@H]3[C@@H](O[C@@H]3O[C@H](CO)[C@@H](O)[C@H](O)[C@H]3O)C[C@]12C [Ginsenoside Rg1, ginsenoside Rg1] | 308.0 | 905.5 | 264 and 310 and 350 | 843.46 and 918.73 and 954.27 | –
10 | O=C(/C=C/c1ccc(O)c2c1C=Cc1cc(O)c(O)cc1O2)O[C@H](Cc1ccc(O)c(O)c1)C(=O)O [Isosalvianolic acid C, isosalvianolic acid C] | 304.0 | 772.6 | 293 (2×) and 326 | 766.96 and 812.08 and 738.89 | –
11 | O=C(/C=C/c1ccc(O)c2c1[C@H](C(=O)O)[C@@H](c1ccc(O)c(O)c1)O2)O[C@H](Cc1ccc(O)c(O)c1)C(=O)O [Lithospermic acid, lithospermic acid] | 356.0 | 811.6 | – | – | –
12 | CC(C)=CCC[C@](C)(O[C@@H]1O[C@H](CO)[C@@H](O)[C@H](O)[C@H]1O)[C@H]1CC[C@]2(C)[C@@H]1[C@H](O)C[C@@H]1[C@@]3(C)CC[C@H](O)C(C)(C)[C@@H]3[C@@H](O[C@@H]3O[C@H](CO)[C@@H](O)[C@H](O)[C@H]3O[C@@H]3OC[C@@H](O)[C@H](O)[C@H]3O)C[C@]12C [Notoginsenoside R1, notoginsenoside R1] | 366.0 | 925.9 | 360 and 383 and 355 | – | mitochondrial function (Table 9) ([2]; 24 h pre-incubation, then hypoxia 8 h, listed as Notoainsenoside R1): 841.9 and 950.39 and 985.33
13 | COc1ccc(-c2coc3cc(O[C@@H]4O[C@H](CO)[C@@H](O)[C@H](O)[C@H]4O)ccc3c2=O)cc1 [Ononin, ononin] | 366.0 | 695.0 | – | – | –
14 | O=Cc1ccc(O)c(O)c1 [Protocatechuic aldehyde, protocatechuic aldehyde] | 336.3 | 909.7 | 361 and 345 and 303 | 946.04 and 881.05 and 901.89 | –
15 | O=C(/C=C/c1ccc(O)c(O)c1)O[C@H](Cc1ccc(O)c(O)c1)C(=O)O [Rosmarinic acid, rosmarinic acid] | 345.3 | 790.6 | – | – | –
16 | O=C(/C=C/c1ccc(O)c(O)c1/C=C/c1ccc(O)c(O)c1)O[C@H](Cc1ccc(O)c(O)c1)C(=O)O [Salvianolic acid A, salvianolic acid A] | 268.3 | 905.1 | 264 and 287 and 254 | – | mitochondrial function (Table 9) ([2]; 24 h pre-incubation, then hypoxia 8 h, listed as Saivianolic acid A): 914.19 and 859.26 and 941.93
17 | O=C(/C=C/c1ccc(O)c2c1[C@H](C(=O)O[C@H](Cc1ccc(O)c(O)c1)C(=O)O)[C@@H](c1ccc(O)c(O)c1)O2)O[C@H](Cc1ccc(O)c(O)c1)C(=O)O [Salvianolic acid B, salvianolic acid B] | 394.7 | 855.2 | 385 and 364 and 435 | 801.62 and 853.39 and 910.53 | –
18 | O=C(O)Cc1c(/C=C/C(=O)O[C@H](Cc2ccc(O)c(O)c2)C(=O)O)ccc(O)c1O [Salvianolic acid D, salvianolic acid D] | 271.7 | 922.3 | 306 and 236 and 273 | 946.71 and 900.04 and 920.17 | –
19 | O=C(O)C1Cc2ccc(O)c3c2C(=Cc2ccc(O)c(O)c2O3)C1=O (centres unmarked) [Salvianolic acid G, salvianolic acid G] | 366.3 | 867.7 | 380 and 328 and 391 | – | mitochondrial function (Table 9) ([2]; 24 h pre-incubation, then hypoxia 8 h, listed as Saivianolic acid G): 870.9 and 831.06 and 901.01
20 | O=C(/C=C/c1ccc(O)c(O)c1/C(=C\c1ccc(O)c(O)c1)C(=O)O)O[C@H](Cc1ccc(O)c(O)c1)C(=O)O [Salvianolic acid T, salvianolic acid T] | 296.0 | 842.6 | 325 and 279 and 284 | 815.14 and 888.53 and 824.27 | –
21 | O=C(/C=C/c1ccc(O)c(O)c1/C(=C\c1ccc(O)c(O)c1)C(=O)O)O[C@H](Cc1ccc(O)c(O)c1)C(=O)O [Salvianolic acid U, salvianolic acid U] | 305.3 | 909.3 | 349 and 315 and 252 | 992.37 and 840.14 and 895.53 | –
22 | Cc1coc2c1C(=O)C(=O)c1c-2ccc2c(C)cccc12 [Tanshinone I, tanshinone I] | 331.3 | 869.8 | 379 and 315 and 300 | 876.03 and 904.55 and 828.87 | –
23 | Cc1coc2c1C(=O)C(=O)c1c-2ccc2c1CCCC2(C)C [Tanshinone IIA, tanshinone IIA] | 393.3 | 695.2 | – | – | –
24 | astragaloside [Astragaioside] | 391.3 | 817.5 | 374 and 365 and 435 | – | mitochondrial function (Table 9) ([2]; 24 h pre-incubation, then hypoxia 8 h, listed as Astradaloside): 812.45 and 768.63 and 871.37
